Data taken from ChEMBL document CHEMBL1201862, “PubChem BioAssay data set” (2004).
Structures can show the parent of a compound that is named as a salt.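 Five compound concentrations were applied to cells in 96-well plates for 48 hours; endpoints were derived by simple linear interpolation of the resulting dose-response curve. GI50 is the concentration that inhibits growth by half.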 Activity calls are given as the source filed them. Cut-off read from the data, not from the text of the source: active = GI50 up to about 1.1 µM and inactive = higher.

Assays:
Assay in all cases: NCI tumour cell line growth inhibition, 48 h
SK-MEL-28 = tested on: SK-MEL-28
SW-620 = tested on: SW-620
TK-10 = tested on: TK-10
UACC-257 = tested on: UACC-257
A498 = tested on: A498
SN12C = tested on: SN12C
NCI-H226 = tested on: NCI-H226
UACC-62 = tested on: UACC-62
K562 = tested on: K562
EKVX = tested on: EKVX
LOX IMVI = tested on: LOX IMVI
KM12 = tested on: KM12
SK-MEL-5 = tested on: SK-MEL-5
SF-539 = tested on: SF-539
OVCAR-8 = tested on: OVCAR-8
786-0 = tested on: 786-0
HT-29 = tested on: HT-29
ACHN = tested on: ACHN
HOP-92 = tested on: HOP-92
RXF 393 = tested on: RXF 393

For `Oc1ccc(C(O)C2CCCCN2)cc1O` (stereo not given) [RIMITEROL HYDROBROMIDE], which GI50 (SK-MEL-28) is on record?
Its GI50 is > 100 µM (inactive).

And the GI50 (SW-620)?
The GI50 was 46.7 µM (inactive).

And the GI50 (TK-10)?
Its GI50 is > 100 µM (inactive).

What about the GI50 (UACC-257) of the same compound?
The GI50 was 57.4 µM (inactive).

And the GI50 (A498)?
Its GI50 is > 100 µM (inactive).

What about the GI50 (SN12C) of the same compound?
The GI50 was > 100 µM (inactive).

And the GI50 (NCI-H226)?
Its GI50 is > 100 µM (inactive).

What about the GI50 (UACC-62) of the same compound?
The GI50 was > 100 µM (inactive).

What about the GI50 (K562) of the same compound?
The GI50 was > 100 µM (inactive).

And the GI50 (EKVX)?
The GI50 was > 100 µM (inactive).

What about the GI50 (LOX IMVI) of the same compound?
The GI50 was 28.4 µM (inactive).

What about the GI50 (KM12) of the same compound?
The GI50 was > 100 µM (inactive).

What about the GI50 (SK-MEL-5) of the same compound?
Its GI50 is > 100 µM (inactive).

And the GI50 (SF-539)?
The GI50 was > 100 µM (inactive).

What about the GI50 (OVCAR-8) of the same compound?
The GI50 was > 100 µM (inactive).

What about the GI50 (786-0) of the same compound?
The GI50 was 18.9 µM (inactive).

What about the GI50 (HT-29) of the same compound?
The GI50 was > 100 µM (inactive).

What about the GI50 (ACHN) of the same compound?
Its GI50 is > 100 µM (inactive).

And the GI50 (HOP-92)?
Its GI50 is > 100 µM (inactive).

What about the GI50 (RXF 393) of the same compound?
Its GI50 is > 100 µM (inactive).

For `COc1cc2c(c3c1c(=O)c1ccccc1n3C)C=CC1(CCCCC1)O2`, which GI50 (SK-MEL-28) is on record?
The GI50 was 4.8 µM (inactive).

What about the GI50 (SW-620) of the same compound?
The GI50 was 6.92 µM (inactive).

And the GI50 (TK-10)?
Its GI50 is > 8.95 µM (inactive).

And the GI50 (UACC-257)?
The GI50 was > 7.73 µM (inactive).

What about the GI50 (A498) of the same compound?
The GI50 was 5.96 µM (inactive).

And the GI50 (SN12C)?
Its GI50 is 6.28 µM (inactive).

What about the GI50 (NCI-H226) of the same compound?
The GI50 was 8.07 µM (inactive).

And the GI50 (UACC-62)?
Its GI50 is 4.14 µM (inactive).

What about the GI50 (K562) of the same compound?
The GI50 was 1.56 µM (inactive).

What about the GI50 (EKVX) of the same compound?
The GI50 was > 7.94 µM (inactive).

And the GI50 (LOX IMVI)?
The GI50 was 3.75 µM (inactive).

And the GI50 (KM12)?
Its GI50 is 0.603 µM (active).

What about the GI50 (SK-MEL-5) of the same compound?
The GI50 was 2.15 µM (inactive).

What about the GI50 (SF-539) of the same compound?
The GI50 was 1.57 µM (inactive).

And the GI50 (OVCAR-8)?
The GI50 was 4.81 µM (inactive).

What about the GI50 (786-0) of the same compound?
The GI50 was 1.04 µM (active).

And the GI50 (HT-29)?
The GI50 was 2.61 µM (inactive).

And the GI50 (ACHN)?
Its GI50 is 3.13 µM (inactive).

And the GI50 (HOP-92)?
Its GI50 is 3.24 µM (inactive).

What about the GI50 (RXF 393) of the same compound?
The GI50 was 0.822 µM (active).

Which GI50 (SK-MEL-28) does the source give for `O=C1CNCCCN2CCN(CCCNCC(=O)Nc3ccc(cc3)S(=O)(=O)c3ccc(cc3)NC(=O)CNCCCN3CCN(CCCNCC(=O)Nc4ccc(cc4)S(=O)(=O)c4ccc(cc4)N1)CC3)CC2` here?
Its GI50 is 22.3 µM (inactive).

And the GI50 (SW-620)?
The GI50 was 31.4 µM (inactive).

And the GI50 (TK-10)?
The GI50 was 20.8 µM (inactive).

And the GI50 (UACC-257)?
Its GI50 is 17 µM (inactive).

And the GI50 (A498)?
Its GI50 is 20.7 µM (inactive).

And the GI50 (SN12C)?
Its GI50 is > 45.3 µM (inactive).

What about the GI50 (NCI-H226) of the same compound?
Its GI50 is > 47.1 µM (inactive).

And the GI50 (UACC-62)?
The GI50 was 32.9 µM (inactive).

And the GI50 (K562)?
The GI50 was 22.3 µM (inactive).

And the GI50 (EKVX)?
Its GI50 is 36.6 µM (inactive).

What about the GI50 (LOX IMVI) of the same compound?
Its GI50 is 21 µM (inactive).

What about the GI50 (KM12) of the same compound?
The GI50 was 27.2 µM (inactive).

What about the GI50 (SK-MEL-5) of the same compound?
The GI50 was 25.1 µM (inactive).

What about the GI50 (SF-539) of the same compound?
The GI50 was 19.5 µM (inactive).

What about the GI50 (OVCAR-8) of the same compound?
The GI50 was 24.8 µM (inactive).

And the GI50 (786-0)?
The GI50 was 16.3 µM (inactive).

What about the GI50 (HT-29) of the same compound?
The GI50 was 27.2 µM (inactive).

And the GI50 (ACHN)?
Its GI50 is 25.6 µM (inactive).

What about the GI50 (HOP-92) of the same compound?
The GI50 was 28.1 µM (inactive).

What about the GI50 (RXF 393) of the same compound?
The GI50 was 28.6 µM (inactive).

What does the source list for `COc1cccc(N(CN2CC=CC2=O)C(C)=O)c1`?
GI50 (SK-MEL-28): > 100 µM (inactive); GI50 (SW-620): > 100 µM (inactive); GI50 (TK-10): > 100 µM (inactive); GI50 (UACC-257): > 100 µM (inactive); GI50 (A498): > 100 µM (inactive); GI50 (SN12C): > 100 µM (inactive); GI50 (NCI-H226): > 100 µM (inactive); GI50 (UACC-62): > 100 µM (inactive); GI50 (K562): > 100 µM (inactive); GI50 (EKVX): > 100 µM (inactive); GI50 (LOX IMVI): > 100 µM (inactive); GI50 (KM12): > 100 µM (inactive); GI50 (SK-MEL-5): > 100 µM (inactive); GI50 (SF-539): > 100 µM (inactive); GI50 (OVCAR-8): > 100 µM (inactive); GI50 (786-0): > 100 µM (inactive); GI50 (HT-29): > 100 µM (inactive); GI50 (ACHN): > 100 µM (inactive); GI50 (HOP-92): > 100 µM (inactive); GI50 (RXF 393): > 100 µM (inactive)

Which results are given for `COc1ccccc1/C=C\c1cnnc2ccccc12`?
GI50 (SK-MEL-28): > 10 µM (inactive); GI50 (SW-620): > 10 µM (inactive); GI50 (TK-10): > 10 µM (inactive); GI50 (UACC-257): > 10 µM (inactive); GI50 (A498): > 10 µM (inactive); GI50 (SN12C): > 10 µM (inactive); GI50 (NCI-H226): > 10 µM (inactive); GI50 (UACC-62): > 10 µM (inactive); GI50 (K562): 4.7 µM (inactive); GI50 (EKVX): 8.79 µM (inactive); GI50 (LOX IMVI): 3.66 µM (inactive); GI50 (KM12): > 10 µM (inactive); GI50 (SK-MEL-5): 6.71 µM (inactive); GI50 (SF-539): > 10 µM (inactive); GI50 (OVCAR-8): > 10 µM (inactive); GI50 (786-0): > 10 µM (inactive); GI50 (HT-29): 3.77 µM (inactive); GI50 (ACHN): > 10 µM (inactive); GI50 (HOP-92): 0.0372 µM (active); GI50 (RXF 393): > 10 µM (inactive)
